Measured values published in patent publication US20240327406A1, “POTASSIUM CHANNEL MODULATORS” (Autifony Therapeutics Limited, priority 2021, published 2024).
Marks after values point to notes of the source that are not given here.

What was measured:
[1] = In vitro metabolic stability, human liver microsomes; format: in vitro ADME; settings: CLint expressed as mL/min/g liver
Experimental: (§1) The objective of this study was to determine metabolic stability of test items in rat and human liver microsomes. Verapamil and dextromethorphan were used as positive controls for microsomal incubation.
(§2) Incubation medium was prepared by combining 11.2 mL of potassium phosphate monobasic and 38.8 mL of potassium phosphate dibasic, diluted to 1 L with water. Cryopreserved microsomes were thawed and kept on ice until use. Microsomes were then diluted in incubation to a protein concentration of 0.56 mg/mL. […]
(§3) NADPH regenerating system solution was prepared by dissolving 1.7 mg of NADP, 7.8 mg of G6P and 6 units of G6P-Dehydrogenase in 1 mL of 2% sodium bicarbonate solution (prepared by dissolving 20 g of NaHCO3 in 1 L of water).
(§4) Test compounds were separately dissolved in DMF to obtain 10 mM stock solutions that were further diluted in water/acetonitrile 50/50 (v/v) to obtain the corresponding 50 μM working solutions. Verapamil and dextromethorphan were dissolved in DMF in order to obtain a 10 mM verapamil solution and 10 mM dextromethorphan solution. These solutions were then diluted in the incubation medium in order to obtain a 50 μM verapamil working solution and a 50 μM dextromethorphan working solution.
(§5) 800 μL-aliquots of NADPH regenerating system were pre-warmed at 37° C. for 5 minutes. 5 μL of 50 µM test compounds, verapamil or dextromethorphan were added to 445 μL of the 0.56 mg/mL microsomes solution and the incubation mixture was pre-warmed in a 96 deep well 2 mL plate (incubation plate) at 37° C. for 5 minutes. The incubation reactions were initiated by adding 50 μL of pre-warmed NADPH regenerating system to the incubation mixtures. 50 μL aliquots were taken from incubation mixtures at: 0, 3, 6, 9, 15, and 30 minutes and the reactions were stopped by adding 100 μL of aceronitrile with the corresponding internal standard. Samples were then diluted with 120 μL of water (final organic solvent percentage at 37%) and centrifuged at 3000 rpm for 10 minutes, prior the LC-MS/MS analysis.
(§6) Metabolic stability was calculated from the peak area ratio of the remaining test compound with internal standard versus time. The intrinsic clearance (CLint) was determined from the first order elimination constant k (min^−1) (obtained from GraphPad by plotting the natural logarithm of the peak area ratio of the remaining test item with internal standard versus time), using the actual volume of the incubation V (mL), the amount of hepatocytes in the incubation M (million cells) and the hepatocellularity number per a liver Hn (120 for human).

Kv3.1 = molecular target: T1, Kv3.1 (Homo sapiens, UniProt P48547); settings: Table 5, RE12 and RE13; based on EC50 value as reported in WO2021214090; cited from earlier work
T1 sequence (P48547 1-511): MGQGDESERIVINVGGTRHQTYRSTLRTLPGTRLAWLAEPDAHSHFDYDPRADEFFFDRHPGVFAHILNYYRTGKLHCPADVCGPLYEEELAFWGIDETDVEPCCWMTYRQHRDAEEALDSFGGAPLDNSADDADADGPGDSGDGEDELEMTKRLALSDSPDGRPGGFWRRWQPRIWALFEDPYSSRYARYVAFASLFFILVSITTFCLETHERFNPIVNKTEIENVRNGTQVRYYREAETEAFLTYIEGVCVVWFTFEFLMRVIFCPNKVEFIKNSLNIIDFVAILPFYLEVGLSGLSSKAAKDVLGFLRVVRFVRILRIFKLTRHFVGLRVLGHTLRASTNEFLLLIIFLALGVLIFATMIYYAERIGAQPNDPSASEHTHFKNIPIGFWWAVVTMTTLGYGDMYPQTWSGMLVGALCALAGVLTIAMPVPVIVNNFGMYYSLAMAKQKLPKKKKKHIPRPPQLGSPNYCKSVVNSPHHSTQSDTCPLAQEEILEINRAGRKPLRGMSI

[2] = In vitro metabolic stability, rat liver microsomes; format: in vitro ADME; settings: CLint expressed as mL/min/g liver
Experimental: as §1, §2, §3, §4, §5, §6

[3] = Determination of blood and brain tissue binding (equilibrium dialysis); format: in vitro ADME, Sprague Dawley rat; settings: Sprague Dawley, 5 h at 37° C.; for fraction unbound at 5 h, 5 micromolar: 1:2 (w/v) in artificial CSF, rat brain homogenate, read-out: % FU Brain; for fraction unbound at 5 h, 0.5 micromolar: whole blood diluted 1:1 (v/v) with isotonic phosphate buffer, rat whole blood, read-out: % FU Blood
Experimental: Sprague Dawley rat whole blood, collected on the week of the experiment using K3-EDTA as an anti-coagulant, is diluted with isotonic phosphate buffer 1:1 (v/v). Sprague Dawley rat whole brain, stored frozen at −20° C., is thawed and homogenised in artificial cerebrospinal fluid (CSF) 1:2 (w/v).
An appropriate amount of test compound is dissolved in DMSO to give a 10 millimolar solution. Further dilutions, to obtain a 166.7 micromolar working solution are then prepared using 50% acetonitrile in MilliQ water. This working solution is used to spike the blood to obtain a final concentration of 0.5 micromolar in whole blood. Similarly, the working solution is used to spike brain samples to obtain a final concentration of 5 micromolar in whole brain. From these spiked blood and brain preparations, control samples (n=3), are immediately extracted and used to calculate the initial recovery of the test items.
150 microL of compound-free buffer (isotonic phosphate buffer for blood or artificial CSF buffer for brain) is dispensed in one half-well and 150 microL of spiked matrix (blood or brain) is loaded in the other half-well, with the two halves separated by a semi-permeable membrane. After an equilibration period of 5 h at 37° C., 50 microL of dialysed matrix (blood or brain) is added to 50 microL of corresponding compound-free buffer, and vice-versa for buffer, such that the volume of buffer to matrix (blood or brain) remains the same. Samples are then extracted by protein precipitation with 300 microL of acetonitrile containing rolipram (control for positive ionization mode) or diclofenac (control for negative ionization mode) as internal standards and centrifuged for 10 min at 3000 rpm. Supernatants are collected (100 microL), diluted with 27% AcN in MilliQ water (200 microL) and then injected into an HPLC-MS/MS or UPLC-MS/MS system to determine the concentration of test compound present.
Blood and brain tissue binding are then determined using the following formulas:
where Afu=apparent fraction unbound; Buffer=analyte/internal standard ratio determined in the buffer compartment; Blood=analyte/internal standard ratio determined in the blood compartment; Brain=analyte/internal standard ratio determined in the brain compartment.
where: fucr=Fraction unbound corrected; D=matrix dilution factor (D=2 for blood and D=3 for brain). then: […]

Structure (SMILES)	Cli human [1] [mL/min/g]	Kv3.1 pEC50 (Kv3.1)	Cli rat [2] [mL/min/g]	fraction unbound at 5 h, 5 micromolar [3]	fraction unbound at 5 h, 0.5 micromolar [3]
Cc1ccc(Oc2ccc(-n3c(=O)[nH]c4cncnc43)cn2)cc1OC(F)(F)F [RE12, reference compound]	1.7	5.2*	1.5	0.006	0.007
Cc1ccc(Oc2ccc(-n3c(=O)[nH]c4cnccc43)cn2)cc1OC(F)(F)F [RE13, reference compound]	0.6	5.6**	1.3	0.005	0.013
